Data on one compound can be found in article PMC6747724, “Dynamic Metabolic Rewiring Enables Efficient Acetyl Coenzyme A Assimilation in Paracoccus denitrificans” (mBio, 2019).

This assay concerns the target T1, Isocitrate lyase (Icl) (Paracoccus denitrificans, UniProt A1B1S0).
T1 construct: gene Pden_1363; Recombinant His6-tagged Icl (Pden_1363)
T1 sequence (A1B1S0 1-535): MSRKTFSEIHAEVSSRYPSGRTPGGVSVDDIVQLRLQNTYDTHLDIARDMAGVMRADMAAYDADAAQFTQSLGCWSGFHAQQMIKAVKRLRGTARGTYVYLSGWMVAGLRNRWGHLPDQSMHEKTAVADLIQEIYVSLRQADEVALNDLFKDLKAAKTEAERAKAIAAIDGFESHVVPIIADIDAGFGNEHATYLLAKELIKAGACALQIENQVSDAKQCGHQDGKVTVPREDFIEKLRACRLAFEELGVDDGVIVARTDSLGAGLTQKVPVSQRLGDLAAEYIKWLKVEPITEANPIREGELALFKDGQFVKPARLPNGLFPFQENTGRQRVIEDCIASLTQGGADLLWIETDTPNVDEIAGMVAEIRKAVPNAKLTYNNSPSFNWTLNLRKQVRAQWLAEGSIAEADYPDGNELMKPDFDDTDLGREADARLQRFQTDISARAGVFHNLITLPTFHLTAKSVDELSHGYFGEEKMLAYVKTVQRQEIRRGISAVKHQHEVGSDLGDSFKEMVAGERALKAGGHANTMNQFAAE
Nature of the assay: spectrophotometric phenylhydrazine-glyoxylate assay with purified enzyme, […] min preincubation with 3-NPA at […]°C. The format is biochemical.

A word on the IC50: it is the concentration that inhibits the measured activity by half. A high value points to a need for much substance. `O=C(O)CC[N+](=O)[O-]` [3-NPA, 3-nitropropionate]: the IC50 is 34 µM. This counts as double-digit micromolar.
